Assay results as given in patent US20050222200A1, “AMIDE DERIVATIVES AS ION CHANNEL LIGANDS AND PHARMACEUTICAL COMPOSITIONS AND METHODS OF USING THE SAME” (Renovis, Inc., priority 2003, published 2005).

Molecular target: T1, VR1 (Homo sapiens, UniProt Q8NER1)
T1 construct: expressed in transfected cells; host or cells: 293 cells ("293 neurons" [sic])
Assay: High throughput calcium imaging assay of VR1 antagonists (Fura2, Flex Station, 96 well)
Assay type: cell-based
Conditions: Table 1 activity class

T1 sequence (Q8NER1 whole entry, species assumed): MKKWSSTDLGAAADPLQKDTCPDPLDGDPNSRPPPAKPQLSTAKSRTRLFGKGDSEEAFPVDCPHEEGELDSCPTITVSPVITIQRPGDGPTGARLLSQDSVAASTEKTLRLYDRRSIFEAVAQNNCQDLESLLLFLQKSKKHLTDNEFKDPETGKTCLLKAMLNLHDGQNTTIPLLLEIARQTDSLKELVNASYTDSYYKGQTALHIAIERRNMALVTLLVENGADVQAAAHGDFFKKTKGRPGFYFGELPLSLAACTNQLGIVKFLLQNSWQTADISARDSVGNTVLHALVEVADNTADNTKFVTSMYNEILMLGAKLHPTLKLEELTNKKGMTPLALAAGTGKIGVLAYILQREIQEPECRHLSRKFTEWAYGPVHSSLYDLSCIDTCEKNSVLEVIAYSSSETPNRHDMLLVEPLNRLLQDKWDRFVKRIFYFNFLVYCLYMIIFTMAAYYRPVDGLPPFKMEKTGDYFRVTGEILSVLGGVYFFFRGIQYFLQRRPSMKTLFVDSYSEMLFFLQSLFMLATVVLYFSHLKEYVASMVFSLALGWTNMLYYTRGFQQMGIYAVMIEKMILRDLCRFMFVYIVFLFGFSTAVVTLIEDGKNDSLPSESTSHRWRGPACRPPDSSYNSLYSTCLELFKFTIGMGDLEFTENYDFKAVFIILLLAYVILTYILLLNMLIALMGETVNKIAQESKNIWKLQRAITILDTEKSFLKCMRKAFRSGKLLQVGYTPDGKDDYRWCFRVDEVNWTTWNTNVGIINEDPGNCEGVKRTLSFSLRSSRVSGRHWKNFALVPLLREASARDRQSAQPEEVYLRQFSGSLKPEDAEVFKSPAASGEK

Row | SMILES | inhibition of calcium ion influx induced by capsaicin stimulation
1 | CCC/C=C/c1ccc(C(=O)NC(C)(C)c2ccccc2)cc1 [Compound 219] | + (compound exhibited 0-25% inhibition of calcium ion influx induced by capsaicin stimulation)
2 | CCC/C=C/c1ccc(C(=O)NCC)cc1 [Compound 223] | +++ (compound exhibited 50-75% inhibition of calcium ion influx induced by capsaicin stimulation)
3 | CCC/C=C/c1ccc(C(=O)NCc2cccs2)cc1 [Compound 224] | ++ (compound exhibited 25-50% inhibition of calcium ion influx induced by capsaicin stimulation)
4 | CCC/C=C/c1ccc(C(=O)Nc2ccccc2C#N)cc1 [Compound 225] | + (compound exhibited 0-25% inhibition of calcium ion influx induced by capsaicin stimulation)
5 | CCC/C=C/c1ccc(C(=O)Nc2cccc(N(C)C)c2)cc1 [Compound 226] | +++ (compound exhibited 50-75% inhibition of calcium ion influx induced by capsaicin stimulation)
6 | CCC/C=C/c1ccc(C(=O)Nc2ccc(N(CC)CC)cc2)cc1 [Compound 227] | + (compound exhibited 0-25% inhibition of calcium ion influx induced by capsaicin stimulation)
7 | CCC/C=C/c1ccc(C(=O)Nc2cccc(Cl)c2)cc1 [Compound 228] | +++ (compound exhibited 50-75% inhibition of calcium ion influx induced by capsaicin stimulation)
8 | CCC/C=C/c1ccc(C(=O)Nc2ccccc2CCC)cc1 [Compound 230] | + (compound exhibited 0-25% inhibition of calcium ion influx induced by capsaicin stimulation)

Molecular target: VR1 (Rattus norvegicus, UniProt O35433)
Assay: Calcium imaging assay: inhibition of capsaicin induced calcium influx in DRG neurons (Fura2, microscope)
Assay type: cell-based
Design: endogenous in cells; host or cells: DRG neurons
Conditions: capsaicin stimulation; class symbols per legend
Protocol: VR1 protein is a heat-gated cation channel that […] resulting in neuronal membrane depolarization and elevated intracellular calcium levels. Therefore the functional activity of compounds at the VR1 receptor may be determined by measuring changes in intracellular calcium levels in neurons such as the dorsal root ganglion.
DRG neurons were grown on PDL coated 96-well black-walled plates, in the presence of DMEM medium containing 5% Penstrep, 5% Glutamax, 200 μg/ml hygromycin, 5 μg/ml blasticide and 10% heat inactivated FBS. Prior to assay, cells were loaded with 5 μg/ml Fura2 in normal saline solution at 37° C for 40 minutes. Cells were then washed with normal saline to remove dye before commencement of the experiment.
The plated neurons were transferred into a chamber on the stage of a Nikon eclipse TE300 microscope after which neurons were allowed to attain a stable fluorescence for about 10 minutes before beginning the experiment. The assay consists of two stages, a pretreatment phase followed by a treatment phase. First, a solution of the test compound was added from a multivalve perfusion system to the cells for 1 minute (pretreatment). Immediately following, capsaicin (250 nM) was added in the presence of the test compound (treatment) for a specific period between 20 and 60 seconds.
Fura2 was excited at […] to indicate relative calcium ion concentration. Changes in wavelength measurements were made throughout the course of the experiment. The fluorescence ratio was calculated by dividing fluorescence measured at 340 nm by that at 380 nM. Data was collected using Intelligent Imaging’s Slidebook software. All compounds that inhibited capsaicin induced calcium influx greater than 75% were considered positives.
Fluorescence reflecting calcium ion influx is reduced.

Sequence of VR1 (Rattus norvegicus, UniProt O35433) (O35433 whole entry): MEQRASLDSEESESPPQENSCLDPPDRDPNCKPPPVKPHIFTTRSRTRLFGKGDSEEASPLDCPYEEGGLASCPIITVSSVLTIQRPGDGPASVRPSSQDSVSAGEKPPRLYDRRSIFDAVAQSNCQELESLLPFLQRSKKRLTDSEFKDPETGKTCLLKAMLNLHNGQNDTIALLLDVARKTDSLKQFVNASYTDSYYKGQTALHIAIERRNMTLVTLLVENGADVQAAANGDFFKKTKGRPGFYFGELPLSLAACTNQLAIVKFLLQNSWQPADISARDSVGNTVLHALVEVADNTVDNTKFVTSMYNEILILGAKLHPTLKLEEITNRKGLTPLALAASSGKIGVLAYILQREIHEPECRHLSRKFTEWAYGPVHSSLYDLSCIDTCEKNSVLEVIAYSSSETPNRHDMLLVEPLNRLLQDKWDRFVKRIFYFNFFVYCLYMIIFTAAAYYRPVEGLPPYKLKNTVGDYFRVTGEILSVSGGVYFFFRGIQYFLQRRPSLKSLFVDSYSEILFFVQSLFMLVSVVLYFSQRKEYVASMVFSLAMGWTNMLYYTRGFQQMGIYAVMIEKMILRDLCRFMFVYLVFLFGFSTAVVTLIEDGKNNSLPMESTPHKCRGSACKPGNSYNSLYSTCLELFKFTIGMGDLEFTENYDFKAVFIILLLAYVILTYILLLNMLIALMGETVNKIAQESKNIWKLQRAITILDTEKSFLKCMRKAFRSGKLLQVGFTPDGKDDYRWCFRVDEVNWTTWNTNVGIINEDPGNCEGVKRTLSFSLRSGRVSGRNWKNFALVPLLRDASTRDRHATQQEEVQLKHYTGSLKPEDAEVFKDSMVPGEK

Row | SMILES | inhibition of calcium ion influx induced by capsaicin stimulation
9 | CCC/C=C/c1ccc(C(=O)Nc2ccccc2Cl)cc1 [Compound 233] | + (compound exhibited 0-25% inhibition of calcium ion influx induced by capsaicin stimulation)
10 | CCC/C=C/c1ccc(C(=O)Nc2cc(C)ccn2)cc1 [Compound 234] | + (compound exhibited 0-25% inhibition of calcium ion influx induced by capsaicin stimulation)
11 | CCC/C=C/c1ccc(C(=O)NCC(C)C)cc1 [Compound 236] | + (compound exhibited 0-25% inhibition of calcium ion influx induced by capsaicin stimulation)
12 | CCC/C=C/c1ccc(C(=O)NC2CCN(C)CC2)cc1 [Compound 237] | + (compound exhibited 0-25% inhibition of calcium ion influx induced by capsaicin stimulation)
13 | CCC/C=C/c1ccc(C(=O)NCc2ccc(OC)c(OC)c2)cc1 [Compound 238] | + (compound exhibited 0-25% inhibition of calcium ion influx induced by capsaicin stimulation)
14 | CCC/C=C/c1ccc(C(=O)NCc2cccc(F)c2)cc1 [Compound 239] | ++ (compound exhibited 25-50% inhibition of calcium ion influx induced by capsaicin stimulation)
15 | CCC/C=C/c1ccc(C(=O)Nc2ccc(Cl)c(C(F)(F)F)c2)cc1 [Compound 242] | ++ (compound exhibited 25-50% inhibition of calcium ion influx induced by capsaicin stimulation)
16 | CCC/C=C/c1ccc(C(=O)Nc2cccc(C#N)c2)cc1 [Compound 244] | ++ (compound exhibited 25-50% inhibition of calcium ion influx induced by capsaicin stimulation)
17 | CCC/C=C/c1ccc(C(=O)Nc2ccccc2CCO)cc1 [Compound 245] | + (compound exhibited 0-25% inhibition of calcium ion influx induced by capsaicin stimulation)
18 | CCC/C=C/c1ccc(C(=O)Nc2ccc(C(C)(C)C)cc2)cc1 [Compound 246] | + (compound exhibited 0-25% inhibition of calcium ion influx induced by capsaicin stimulation)
19 | CCC/C=C/c1ccc(C(=O)Nc2ccc(C(C)C)cc2)cc1 [Compound 247] | + (compound exhibited 0-25% inhibition of calcium ion influx induced by capsaicin stimulation)
20 | CCC/C=C/c1ccc(C(=O)Nc2ccc(CCCC)cc2)cc1 [Compound 248] | +++ (compound exhibited 50-75% inhibition of calcium ion influx induced by capsaicin stimulation)
21 | CCC/C=C/c1ccc(C(=O)Nc2cc(OC)cc(C(F)(F)F)c2)cc1 [Compound 249] | + (compound exhibited 0-25% inhibition of calcium ion influx induced by capsaicin stimulation)
22 | CCC/C=C/c1ccc(C(=O)Nc2ccc3[nH]ccc3c2)cc1 [Compound 252] | + (compound exhibited 0-25% inhibition of calcium ion influx induced by capsaicin stimulation)
23 | CCC/C=C/c1ccc(C(=O)Nc2cc(CC)ccn2)cc1 [Compound 256] | + (compound exhibited 0-25% inhibition of calcium ion influx induced by capsaicin stimulation)
24 | CCC/C=C/c1ccc(C(=O)Nc2ccc(Cl)nc2)cc1 [Compound 259] | + (compound exhibited 0-25% inhibition of calcium ion influx induced by capsaicin stimulation)
25 | CCC/C=C/c1ccc(C(=O)Nc2ccc(OC)nc2)cc1 [Compound 260] | + (compound exhibited 0-25% inhibition of calcium ion influx induced by capsaicin stimulation)

Row | SMILES | inhibition of calcium ion influx induced by capsaicin stimulation
26 | CCC/C=C/c1ccc(C(=O)Nc2ccnc(Cl)c2)cc1 [Compound 261] | + (compound exhibited 0-25% inhibition of calcium ion influx induced by capsaicin stimulation)
27 | CCC/C=C/c1ccc(C(=O)NCc2cccnc2)cc1 [Compound 267] | + (compound exhibited 0-25% inhibition of calcium ion influx induced by capsaicin stimulation)
28 | COc1ccccc1CNC(=O)c1ccc(/C(C)=C/C(C)(C)C)cc1 [Compound 275] | + (compound exhibited 0-25% inhibition of calcium ion influx induced by capsaicin stimulation)
29 | C/C(=C\C(C)(C)C)c1ccc(C(=O)NCc2ccncc2)cc1 [Compound 281] | + (compound exhibited 0-25% inhibition of calcium ion influx induced by capsaicin stimulation)
30 | C/C(=C\C(C)(C)C)c1ccc(C(=O)NC(c2ccccc2)c2ccccc2)cc1 [Compound 283] | + (compound exhibited 0-25% inhibition of calcium ion influx induced by capsaicin stimulation)
31 | C/C(=C\C(C)(C)C)c1ccc(C(=O)NCCc2ccccc2Cl)cc1 [Compound 286] | + (compound exhibited 0-25% inhibition of calcium ion influx induced by capsaicin stimulation)
32 | C/C(=C\C(C)(C)C)c1ccc(C(=O)NC2CCC(C(C)(C)C)CC2)cc1 (stereo not drawn) [Compound 287] | + (compound exhibited 0-25% inhibition of calcium ion influx induced by capsaicin stimulation)
33 | C/C(=C\C(C)(C)C)c1ccc(C(=O)NCCc2ccc(S(N)(=O)=O)cc2)cc1 [Compound 304] | + (compound exhibited 0-25% inhibition of calcium ion influx induced by capsaicin stimulation)
34 | COc1cc(CNC(=O)c2ccc(/C(C)=C/C(C)(C)C)cc2)cc(OC)c1OC [Compound 305] | + (compound exhibited 0-25% inhibition of calcium ion influx induced by capsaicin stimulation)
35 | C/C(=C\C(C)(C)C)c1ccc(C(=O)NCc2ccccn2)cc1 [Compound 308] | + (compound exhibited 0-25% inhibition of calcium ion influx induced by capsaicin stimulation)
36 | C/C(=C\C(C)(C)C)c1ccc(C(=O)Nc2ccccc2O)cc1 [Compound 313] | + (compound exhibited 0-25% inhibition of calcium ion influx induced by capsaicin stimulation)
37 | CCNC(=O)c1ccc(/C(C)=C/C(C)(C)C)cc1 [Compound 315] | + (compound exhibited 0-25% inhibition of calcium ion influx induced by capsaicin stimulation)
38 | C/C(=C\C(C)(C)C)c1ccc(C(=O)NCc2cccs2)cc1 [Compound 316] | ++ (compound exhibited 25-50% inhibition of calcium ion influx induced by capsaicin stimulation)
39 | C/C(=C\C(C)(C)C)c1ccc(C(=O)Nc2cc(C)ccn2)cc1 [Compound 324] | + (compound exhibited 0-25% inhibition of calcium ion influx induced by capsaicin stimulation)
40 | COc1ccc(NC(=O)c2ccc(/C(C)=C/C(C)(C)C)cc2)cc1Cl [Compound 330] | + (compound exhibited 0-25% inhibition of calcium ion influx induced by capsaicin stimulation)
41 | C/C(=C\C(C)(C)C)c1ccc(C(=O)Nc2ccc(C(F)(F)F)cc2)cc1 [Compound 331] | +++ (compound exhibited 50-75% inhibition of calcium ion influx induced by capsaicin stimulation)
42 | C/C(=C\C(C)(C)C)c1ccc(C(=O)Nc2cccc(C#N)c2)cc1 [Compound 332] | +++ (compound exhibited 50-75% inhibition of calcium ion influx induced by capsaicin stimulation)
